Data on 17 compounds can be found in patent US5071636A, “Chelating compounds and their use” (Nihon Medi-Physics Co., Ltd., priority 1987, dated 1991).

Data set [1] is described as follows: Biodistribution in rabbits: biological half life in the brain by gamma camera imaging. The class given is in vivo, Japanese white rabbits (male). The following applies: for Biological half-life in brain, First phase / Biological half-life in brain, First phase (rate) / Biological half-life in brain, Second phase / Biological half-life in brain, Second phase (rate): rabbit, in vivo; for Accumulation in the cerebral parenchymal cells / biological half life in the brain, first phase / biological half life in the brain, second phase / rate of first phase of biological half life in the brain / rate of second phase of biological half life in the brain: rabbits, Example 10; for Accumulation in the cerebral parenchymal cells: imaging; for biological half life in the brain, first phase / biological half life in the brain, second phase / rate of first phase of biological half life in the brain / rate of second phase of biological half life in the brain: via the carotid artery. How it is done:
Japanese white rabbits (male) were anesthetized with a pentobarbital solution (2.5 mg/kg), and Tc-99m(BI-11o) (0.2 ml, […]) was administered via the carotid artery under a gamma camera (GCA-90B, Toshiba Co., Ltd.). Then, imaging of 112 frames (30 seconds/frame) was made in minutes. A region of interest was drawn around brain on images, and the time-activitycurve of the brain was obtained.
It was thus concluded that the above examination procedure was suitable for evaluation of the accumulation in the brain and the disappearance from the brain.
In the same manner as in Example 10 using other technetium-99m-labeled polyaminedithiol compounds instead of Tc-99m-(BI-11o), their biodistribution in rabbits was examined, and their biological half-life in the brain was calculated.

Data set [2] can be described thus: Thin layer electrophoresis (EP) of technetium-99m-labeled compounds. The class given is physicochemical. The following applies: Table 16, Tc-99m-labeled; 50 mM phosphate buffer pH 7.4, 0.5 mA/cm, room temperature, 15 minutes. As to the method: ZI. Thin layer electrophoresis for Tc-99m-(BI-11c)
An appropriate amount of Tc-99m-(BI-11c) was spotted on an acetylated cellulose membrane and subjected to electrophoresis using 50 mM phosphate buffer (pH, 7.4) as an electrode buffer at a constant current of 0.5 mA/cm and at room temperature for 15 minutes. In the same manner as in ZH, the membrane was scanned to determine the distribution of radioactivity with a thin layer radioachromatoscanner.
In the same manner as in Example 8 ZF, ZG, ZH and ZI but using other polyaminedithiol compounds instead of Compound (11c), preparation of non-radioactive carriers and radioactive diagnostic agents was made. The optimum labeling conditions for the polyaminedithiol compounds were studied. Furthermore, the physical characteristics of the produced technetium-99m-labeled polyaminedithiol compounds were evaluated.

The test system of data set [3] is normal cerebral parenchymal cells. The following applies: in vivo; cited from earlier work.

`CCCCCNCC(NCCNCC(C)(C)S)C(C)(C)S` (centres unmarked) [Compound 11d, N-(2-Mercapto-2-methylpropyl)-N' -(1-n-amylaminomethyl-2-mercapto-2-methylpropyl)ethylenediamine]: in data set [1], the “Biological half-life in brain, First phase” value turned out to be 18 min; the “Biological half-life in brain, First phase (rate)” value is reported as 32%; the “Biological half-life in brain, Second phase” value amounted to 184 min; the “Biological half-life in brain, Second phase (rate)” value is 68%. For the same compound, the “EP (Charge)” value in data set [2] is “.smallcircle”.

As for `CC(C)(S)CNCCNC(CN1CCCCC1)C(C)(C)S` (centres unmarked) [Compound 11g, N-(2-Mercapto-2-methylpropyl)-N' -(2-mercapto-2-methyl-1-piperidino-methylpropyl)ethylenediamine], in data set [1], the “Biological half-life in brain, First phase” value amounted to 5 min; the “Biological half-life in brain, First phase (rate)” value stood at 23%; the “Biological half-life in brain, Second phase” value stood at 60 min; the “Biological half-life in brain, Second phase (rate)” value came out at 77%.

Consider `CC(C)(S)CNCCNC(CN1CCNCC1)C(C)(C)S` (centres unmarked) [Compound 11h, N-(2-Mercapto-2-methylpropyl)-N'-(2-mercapto-2-methyl-1-piperazinomethylpropyl)ethylenediamine], for which, in data set [1], the “Biological half-life in brain, First phase” value was determined as 1 min; the “Biological half-life in brain, First phase (rate)” value amounted to 44%; the “Biological half-life in brain, Second phase” value was found to be 40 min; the “Biological half-life in brain, Second phase (rate)” value is on record as 56%.

As for `CN1CCN(CC(NCCNCC(C)(C)S)C(C)(C)S)CC1` (centres unmarked) [Compound 11i, N-(2-Mercapto-2-methylpropyl)-N' -[2-mercapto-2-methyl-1-(4-methyl-piperazino)methylpropyl]ethylene-diamine], in data set [1], the “Biological half-life in brain, First phase” value is given as 8 min; the “Biological half-life in brain, First phase (rate)” value is reported as 50%; the “Biological half-life in brain, Second phase” value is on record as 686 min; the “Biological half-life in brain, Second phase (rate)” value stood at 50%.

As for `CC(C)(S)CNCCNC(CN1CCOCC1)C(C)(C)S` (centres unmarked) [Compound 11k, N-(2-Mercapto-2-methylpropyl)-N' -(2-mercapto-2-methyl-1-morpholino-methylpropyl)ethylenediamine], in data set [1], the “Biological half-life in brain, First phase” value is recorded as 4 min; the “Biological half-life in brain, First phase (rate)” value came out at 39%; the “Biological half-life in brain, Second phase” value was determined as 21 min; the “Biological half-life in brain, Second phase (rate)” value is 61%.

As for `CCCC(C)NCC(NCCNCC(C)(C)S)C(C)(C)S` (centres unmarked) [Compound 11l, N-(2-Mercapto-2-methylpropyl)-N' -[1-(1-methylbutylamino)-methyl-2-mercapto-2-methylpropyl]ethylene-diamine], in data set [1], the “Biological half-life in brain, First phase” value is reported as 11 min; the “Biological half-life in brain, First phase (rate)” value is on record as 34%; the “Biological half-life in brain, Second phase” value was found to be 132 min; the “Biological half-life in brain, Second phase (rate)” value amounted to 66%.

On to `CCCCCCNCC(NCCNCC(C)(C)S)C(C)(C)S` (centres unmarked) [Compound 11m, N-(2-Mercapto-2-methylpropyl)-N' -(1-n-hexylaminomethyl-2-mercapto-2-methylpropyl)ethylenediamine], for which, in data set [1], the “Biological half-life in brain, First phase” value stood at 3 min; the “Biological half-life in brain, First phase (rate)” value is recorded as 24%; the “Biological half-life in brain, Second phase” value is on record as 58 min; the “Biological half-life in brain, Second phase (rate)” value came out at 76%. Besides, in data set [2], the “EP (Charge)” value is given as “.smallcircle”.

For the compound `CCCCN(CC)CC(NCCNCC(C)(C)S)C(C)(C)S` (centres unmarked) [Compound 11n, N-(2-Mercapto-2-methylpropyl)-N' -[1-(N-butyl-N-ethylamino)-methyl-2-mercapto-2-methylpropyl]ethylenediamine], in data set [1], the “Biological half-life in brain, First phase” value stood at 17 min; the “Biological half-life in brain, First phase (rate)” value turned out to be 42%; the “Biological half-life in brain, Second phase” value amounted to 198 min; the “Biological half-life in brain, Second phase (rate)” value is given as 58%.

Turning to `CC1CCN(CC(NCCNCC(C)(C)S)C(C)(C)S)CC1` (centres unmarked) [Compound 11p, N-(2-Mercapto-2-methylpropyl)-N'-[2-mercapto-2-methyl-1-(4-methylpiperidino)methylpropyl]ethylenediamine], in data set [1], the “Biological half-life in brain, First phase” value turned out to be 3 min; the “Biological half-life in brain, First phase (rate)” value came to 18%; the “Biological half-life in brain, Second phase” value came to 83 min; the “Biological half-life in brain, Second phase (rate)” value is recorded as 82%. In addition, in data set [2], the “EP (Charge)” value is listed as “.smallcircle”.

Take `CC(C)(S)CNCCNC(CN1CCCC1)C(C)(C)S` (centres unmarked) [Compound 11r, N-(2-Mercapto-2-methylpropyl)-N'-(2-mercapto-2-methyl-1-pyrrolidinomethylpropyl)ethylenediamine]: in data set [1], the “Biological half-life in brain, First phase” value was 3 min; the “Biological half-life in brain, First phase (rate)” value turned out to be 28%; the “Biological half-life in brain, Second phase” value worked out at 36 min; the “Biological half-life in brain, Second phase (rate)” value turned out to be 72%.

As to `CC(C)(S)CNCCNC(CN1CCN(Cc2ccccc2)CC1)C(C)(C)S` (centres unmarked) [Compound 11w, N-(2-Mercapto-2-methylpropyl)-N'-[1-(4-benzylpiperazino)methyl-2-mercapto-2-methylpropyl]ethylenediamine], in data set [1], the “Biological half-life in brain, First phase” value stood at 13 min; the “Biological half-life in brain, First phase (rate)” value is recorded as 60%; the “Biological half-life in brain, Second phase” value is 144 min; the “Biological half-life in brain, Second phase (rate)” value is on record as 40%. For the same compound, in data set [2], the “EP (Charge)” value is recorded as “.smallcircle”.

For the compound `CC(C)(S)CNCCNC(CN1CCC(c2ccccc2)CC1)C(C)(C)S` (centres unmarked) [Compound 11x, N-(2-Mercapto-2-methylpropyl)-N'-[2-mercapto-2-methyl-1-(4-phenylpiperidino)methylpropyl]ethylenediamine], in data set [1], the “Biological half-life in brain, First phase” value came out at 10 min; the “Biological half-life in brain, First phase (rate)” value is recorded as 46%; the “Biological half-life in brain, Second phase” value is reported as 150 min; the “Biological half-life in brain, Second phase (rate)” value turned out to be 54%. In addition, the “EP (Charge)” value in data set [2] is “.smallcircle”.

As for `CC(C)(S)C(CNCCN1CCOCC1)NCCNC(CNCCN1CCOCC1)C(C)(C)S` (centres unmarked) [Compound 14r, N,N' -Bis[2-mercapto-2-methyl-1-(2-morpholinoethylamino)methylpropyl]-ethylenediamine], the “EP (Charge)” value in data set [2] is on record as “.smallcircle”.

With `CC(C)(S)C(CNCCCN1CCOCC1)NCCNC(CNCCCN1CCOCC1)C(C)(C)S` (centres unmarked) [Compound 14s, N,N'-Bis[2-mercapto-2-methyl-1-(3-morpholinopropylamino)methyl-propyl]ethylenediamine], the “EP (Charge)” value in data set [2] is given as “.smallcircle”.

Regarding `CCCCSC(C)(C)CNCCNC(CN1CCC(C)CC1)C(C)(C)S` (centres unmarked) [Compound 33, N-(2-Butylthio-2-methylpropyl)-N'-[2-mercapto-2-methyl-1-(4-methylpiperidino)methylpropyl]-ethylenediamine], in data set [1], the “Biological half-life in brain, First phase” value is 7 min; the “Biological half-life in brain, First phase (rate)” value is recorded as 26%; the “Biological half-life in brain, Second phase” value was determined as 148 min; the “Biological half-life in brain, Second phase (rate)” value was found to be 74%. In addition, the “EP (Charge)” value in data set [2] is given as “.smallcircle”.

As for `CC(C)NC(C)Cc1ccc([123I])cc1` (centres unmarked) [Compound I-123-IMP, N-isopropyl-2-methyl-p-iodo(I-123)-phenethylamine, reference compound], in data set [1], the “Accumulation in the cerebral parenchymal cells” value is given as “observed”; the “biological half life in the brain, first phase” value stood at 71 minutes; the “biological half life in the brain, second phase” value worked out at 98 minutes; the “rate of first phase of biological half life in the brain” value was 39%. Also, the “rate of second phase of biological half life in the brain” value in data set [1] came out at 61%.

Regarding `O=C([O-])CN(CCN(CC(=O)[O-])CC(=O)[O-])CCN(CC(=O)[O-])CC(=O)[O-].[99Tc+4]` [^99m Tc-DTPA, ^99m Tc-labeled diethylenetriaminepentaacetic acid, reference compound], in data set [1], the “Accumulation in the cerebral parenchymal cells” value is on record as “no accumulation was seen”; the “biological half life in the brain, first phase” value is listed as 2 minutes; the “biological half life in the brain, second phase” value is recorded as 18 minutes; the “rate of first phase of biological half life in the brain” value came out at 75%. The “rate of second phase of biological half life in the brain” value in data set [1] is reported as 25%. For the same compound, the “accumulation in normal cerebral parenchymal cells” value in data set [3] was “not accumulating”.
